Experimental data as given in patent US20250222117A1, “COMPOUND COMPRISING RALTITREXED OR 5-MTHF LINKED TO A THERAPEUTIC AGENT, COMPOSITION, AND METHOD OF USE” (PURDUE RESEARCH FOUNDATION, priority 2022, published 2025).

Test system: murine CD45+CD4+CD25+ Tregs
Assay: Treg suppression assay: pre-treated Tregs co-cultured with CFSE-labeled effector T cells, flow cytometry
Type: cell-based, mouse
Details: Tregs pre-treated 10 nM for 3 hours, 1:4 ratio, 4 days
Protocol: Murine CD45+CD4+CD25+ Tregs and CD45+CD4+CD25− effector T cells were isolated from healthy mice using a StemCell mouse Treg Isolation Kit (StemCell Technologies, Cambridge, MA). The cells were used in two different assays.
First, Tregs that were either pre-treated with 10 nM TLR7-1A agonist for 3 hours or left untreated were co-cultured with CFSE-labeled effector T cells at 1:4 ratio, with or without CD3/CD28 activation beads. Incubation proceeded for 4 days before flow cytometry analysis.

Structure (SMILES): CCCCc1nc2c(N)nc3ccccc3c2n1CC(C)(C)CO [TLR7-1A agonist, 3-(4-amino-2-butyl-1H-imidazo[4,5-c]quinolin-1-yl)-2,2-dimethylpropan-1-ol]
- effect on Treg suppression of CD4+ T cell proliferation: reversed the suppressive activity
